Experimental data taken from article PMC9178010, “Identification and characterization of a prokaryotic 6-4 photolyase from Synechococcus elongatus with a deazariboflavin antenna chromophore” (Nucleic Acids Research, 2022).

Columns and labels:
Assay type in all cases: binding
SePhrA (SePhrA[ScFbiC]) [1] = biological target: T1, SePhrA (SePhrA[ScFbiC]) (Synechococcus elongatus, UniProt Q31S25); assay: co-purified cofactor; absorption, fluorescence and TLC of denatured protein; details: antenna chromophore; co-expressed with S. coelicolor FO synthase FbiC
T1 construct: gene Synpcc7942_0112; full-length gene in pET22b, E. coli BL21(DE3), co-expressed with S. coelicolor FbiC; Ni-NTA and Superdex 200
T1 sequence (Q31S25 1-484): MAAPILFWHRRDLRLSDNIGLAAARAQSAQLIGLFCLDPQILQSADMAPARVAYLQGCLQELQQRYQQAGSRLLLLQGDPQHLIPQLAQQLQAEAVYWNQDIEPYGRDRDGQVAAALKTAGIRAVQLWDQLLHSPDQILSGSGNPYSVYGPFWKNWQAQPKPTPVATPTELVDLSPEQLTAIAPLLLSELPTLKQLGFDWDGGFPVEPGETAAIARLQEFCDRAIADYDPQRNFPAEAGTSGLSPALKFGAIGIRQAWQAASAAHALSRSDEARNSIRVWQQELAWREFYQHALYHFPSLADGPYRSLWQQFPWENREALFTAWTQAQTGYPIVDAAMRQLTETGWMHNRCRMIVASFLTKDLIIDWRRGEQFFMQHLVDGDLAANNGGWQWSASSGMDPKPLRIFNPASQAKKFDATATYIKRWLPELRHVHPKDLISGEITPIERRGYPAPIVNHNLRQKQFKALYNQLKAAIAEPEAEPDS

[2] = biological target: T2, SePhrB (SePhrB[Ec]; SePhrB[ScFbiC]; SePhrB[8-HDF]) (Synechococcus elongatus, UniProt Q31P18); assay: as above
T2 construct: gene Synpcc7942_1171; full-length gene in pET22b, E. coli BL21(DE3), Ni-NTA and Superdex 200; iron-sulfur cluster protein; expressed alone or with S. coelicolor FbiC
T2 sequence (Q31P18 1-503): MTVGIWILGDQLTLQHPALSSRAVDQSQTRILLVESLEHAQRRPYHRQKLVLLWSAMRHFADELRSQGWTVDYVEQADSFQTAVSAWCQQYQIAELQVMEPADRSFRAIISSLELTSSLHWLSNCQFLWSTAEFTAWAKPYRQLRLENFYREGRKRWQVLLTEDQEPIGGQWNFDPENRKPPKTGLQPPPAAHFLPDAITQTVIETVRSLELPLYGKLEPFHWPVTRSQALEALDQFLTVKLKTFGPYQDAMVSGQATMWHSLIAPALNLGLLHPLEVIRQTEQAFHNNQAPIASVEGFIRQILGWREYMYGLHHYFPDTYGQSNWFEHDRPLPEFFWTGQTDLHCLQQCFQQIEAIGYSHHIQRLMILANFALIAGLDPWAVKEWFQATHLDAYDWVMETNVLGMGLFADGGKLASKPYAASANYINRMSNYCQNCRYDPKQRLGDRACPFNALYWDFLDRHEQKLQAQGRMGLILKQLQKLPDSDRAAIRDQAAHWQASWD

AfPhrB = biological target: T3, AfPhrB (Agrobacterium fabrum, UniProt A9CH39); assay: as above; details: co-purified from E. coli
T3 construct: gene phrB; synthetic phrB gene in pET22b, E. coli BL21(DE3), Ni-NTA and Superdex 200

SePhrA (SePhrA[ScFbiC]) [3] = biological target: T1, SePhrA (SePhrA[ScFbiC]); assay: TLC of denatured protein supernatant; details: catalytic cofactor; co-expressed with S. coelicolor FO synthase FbiC

T3 sequence (A9CH39 whole entry): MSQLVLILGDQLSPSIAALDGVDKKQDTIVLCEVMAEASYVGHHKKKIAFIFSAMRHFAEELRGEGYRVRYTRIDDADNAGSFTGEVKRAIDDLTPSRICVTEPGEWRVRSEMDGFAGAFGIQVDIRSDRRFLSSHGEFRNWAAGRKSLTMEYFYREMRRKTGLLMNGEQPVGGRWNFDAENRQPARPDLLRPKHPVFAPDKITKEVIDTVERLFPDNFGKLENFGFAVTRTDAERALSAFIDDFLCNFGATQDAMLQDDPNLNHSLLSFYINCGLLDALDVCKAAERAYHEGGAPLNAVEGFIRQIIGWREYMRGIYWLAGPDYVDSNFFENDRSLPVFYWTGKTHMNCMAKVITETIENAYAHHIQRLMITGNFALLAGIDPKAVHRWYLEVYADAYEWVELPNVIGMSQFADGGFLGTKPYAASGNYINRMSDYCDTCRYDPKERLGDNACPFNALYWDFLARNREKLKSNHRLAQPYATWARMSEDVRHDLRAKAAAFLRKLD

For `O=c1nc2n(C[C@H](O)[C@H](O)[C@H](O)CO)c3cc(O)ccc3cc-2c(=O)[nH]1` [8-HDF, 7,8-didemethyl-8-hydroxy-5-deazariboflavin], the “co-purified cofactor; absorption, fluorescence and TLC of denatured protein” value (from here on “co-purified cofactor; absorption”) (SePhrA (SePhrA[ScFbiC]) [1]) was “an additional bright blue band that was attributed to 8-HDF” and the “co-purified cofactor; absorption” value ([2]; antenna chromophore, co-expressed with S. coelicolor FO synthase FbiC) was “SePhrB associates with FAD and 8-HDF when co-expressed with the ScFbiC”.

`Cc1nc2c(=O)[nH]c(=O)nc-2n(C[C@H](O)[C@H](O)[C@H](O)CO)c1C` [DMRL, 6,7-dimethyl-8-ribityllumazine] was tested, and the “co-purified cofactor; absorption” value (AfPhrB; antenna chromophore) was “a yellow fluorescent band of FAD, and a blue-green fluorescent band of DMRL”.

`Cc1cc2nc3c(=O)[nH]c(=O)nc-3n(C[C@H](O)[C@H](O)[C@H](O)COP(=O)(O)OP(=O)(O)OC[C@H]3O[C@@H](n4cnc5c(N)ncnc54)[C@H](O)[C@@H]3O)c2cc1C` [FAD] was tested, and the “co-purified cofactor; absorption” value (AfPhrB; catalytic cofactor) was “the supernatant of AfphrB produced a yellow fluorescent band of FAD”, the “co-purified cofactor; absorption” value ([2]; catalytic cofactor, expressed in E. coli without FbiC, fully oxidized as purified) was “SePhrB[Ec] gave only one yellow fluorescent band with the same Rf value of authentic FAD” and the “TLC of denatured protein supernatant” value (SePhrA (SePhrA[ScFbiC]) [3]) was “each of them had a yellow FAD band”.
